Assay results as given in patent publication US20160008298A1, “XANTHOHUMOL-BASED COMPOUNDS AND COMPOSITIONS THEREOF, AND METHODS OF MAKING AND USING THE SAME” (Oregon State University, priority 2014, published 2016).

Columns and labels:
plasma membrane = details: cited from earlier work
[1] = system: mitochondrial transmembrane potential in C2C12 cells; assay: JC-1 assay of mitochondrial transmembrane potential; type: cell-based, mouse; details: 2.5 μM
Protocol: Cells were plated at a density of 80,000 cells per well in black 96-well plates and incubated for 24 hours at 37° C. (5% CO2). They were then treated with fresh solutions of various concentrations of XN, DXN or TXN in growth medium. The final concentrations of XN, DXN, TXN were 1, 2, 5, 8, 25, 50 μM, all in quadruplicate wells, in the 96-well plates. After one hour of exposure to the compounds at 37° C. (5% CO2), the cells were treated with 10 μL of a JC-1 staining solution (freshly prepared by diluting 11 fold 100 μL of the JC-1 agent furnished from the assay kit). After 15 to 30 minutes of incubation (37° C., 5% CO2), the cells were washed three times with the Cell-Based Assay Buffer (prepared by dissolving three buffer tablets of the kit in 300 mL of MilliQ water). The plates were then analyzed by a fluorescent plate reader (SpectraMax Gemini XS) at 560-595 nm and 485-535 nm.
JC-1 can selectively enter into mitochondria and reversibly change color from green to red as the membrane potential increases. In healthy cells with high mitochondrial transmembrane potential, JC-1 spontaneously forms complexes known as J-aggregates with intense red fluorescence with excitation and emission at 560 nm and 595 nm, respectively. […] The ratio of fluorescence intensity of J-aggregates to fluorescence intensity of J-monomers can be used as an indicator of cell heath or mitochondrial state. […] A decrease in the values of the ratios compared to the control is indicative of an alteration in the potential across the mitochondrial membrane.

mice = details: mouse; cited from earlier work
[2] = system: C2C12 skeletal muscle cells; assay: Seahorse OCR and ECAR measurements after oligomycin; type: cell-based, mouse; details: oligomycin 1 μM; for ECAR plateau after injection of oligomycin: % pre oligomycin values
Protocol: OCR and ECAR measurements were performed with a Seahorse XF 24 Analyzer (Seahorse Bioscience). Cells were plated 24 hours prior to measurements at a density of 40,000 cells per well within growth medium in a 24-well plate. The cells were then allowed to adhere for 24 hours (37° C., 5% CO2). Prior to the assay, the cells were washed with freshly prepared running media consisting of Seahorse XF Assay medium (Seahorse Bioscience, North America, USA), 10 mM glucose and 1 mM sodium pyruvate. The pH of the medium was adjusted to 7.4 with 1 M NaOH. The cells were then equilibrated for one hour at 37° C. without CO2. The compounds were injected during the assay; OCR and ECAR were measured at 9 minutes measurement intervals. The solutions of oligomycin, FCCP, XN, DXN and TXN were freshly prepared in running medium. The final concentrations in the wells were: 1 μM for oligomycin, 5 μM for XN, DXN and TXN and 2, 5, 8, 25 μM for the dose response experiments with DXN. Ethanol was added to the control wells not to exceed a final concentration of 0.1%. All the compounds were tested in quadruplicate on the 24-well plate. XN is highly non-polar and FBS can be used to dissolve XN. Thus, XN, DXN and TXN were first dissolved in ethanol and the resulting solutions were diluted 100-fold in running medium containing 1% of FBS. After a further 10-fold dilution into the media in wells, only 0.1% of FBS was present during OCR measurements. […] The concentration of oligomycin and the cell density used were selected based on preliminary experiments.
Seahorse data were analyzed in SAS 9.2 (SAS Institute Inc., Cary, N.C.). To show a consistent baseline, OCR values (in pmol/min/mg protein) and ECAR values (in mpH/min/mg protein) for each value were divided prior to statistical analysis by the average of the four pre oligomycin treatment values (0, 8, 17, and 25 minutes) for the corresponding well and are shown as % pre oligomycin values. The original scale for OCR and for ECAR values was utilized for the OCR/ECAR ratio (in pMol/mpH). To account for repeated measures within wells over time, a repeated-measures-in-time design using ANOVA procedures in PROC MIXED was used. Fixed effects in the model were treatment (control, 2 μM DXN, 5 μM XN, 5 μM DXN, and 5 μM TXN for the compound study and control, 2, 5, 8, and 25 μM DXN for the DXN dosage study), time (0, 8, 17, 25, 34, 43, 52, 60, 69, 78, 86, and 95 minutes), and their interaction. The random effect was the experiment (5 experiments for the compound study and 3 experiments for the DXN dosage study). To account for repeated measures within wells over time, a first order homogeneous variance-covariance matrix [AR(1)] was fitted for each well. Using the ESTIMATE statement, a priori contrasts were constructed by comparing the changes in compound treated cells from the last two time points prior to compound treatment (average 52 and 60 minutes) to the changes in control cells during the same time period. This was done for each compound and dosage for 69, 78, 86, and 95 minutes separately and for all four time points combined. […] A P-value of 0.05 was considered statistically significant and is shown as star in the graphs (FIG. 5).

Structure (SMILES): N#CC(C#N)=NNc1ccc(OC(F)(F)F)cc1 [FCCP, carbonyl cyanide-4-(trifluoromethoxy)phenylhydrazone, reference compound]
- concentration from which the plasma membrane is depolarized (plasma membrane): above 2.5 μM
- ratio value of aggregates to monomers (JC-1, percent of control) [1]: 33.0±5.6%

Structure (SMILES): O=[N+]([O-])c1ccc(O)c([N+](=O)[O-])c1 [dinitrophenol, reference compound]
- LD50 (mice): 45 mg/kg

Structure (SMILES): CC[C@H]1/C=C/C=C/C[C@@H](C)[C@H](O)[C@@](C)(O)C(=O)[C@@H](C)[C@H](O)[C@@H](C)C(=O)[C@@H](C)[C@H](O)[C@@H](C)/C=C/C(=O)O[C@@H]2[C@H](C)[C@H](CC1)O[C@]1(CC[C@H](C)[C@H](C[C@@H](C)O)O1)[C@H]2C [oligomycin, reference compound]
- residual OCR after oligomycin ([2]; DXN dosage experiment): 51.4±6.3%
- ECAR plateau after injection of oligomycin ([2]; DXN dosage study): 151.1±3.4%
- ECAR plateau after injection of oligomycin ([2]; compound study): 160.1±5.1%
